The text below walks through data of patent US20210395210A1, “INHIBITION OF BACTERIAL CHAPERONIN SYSTEMS” (THE TRUSTEES OF INDIANA UNIVERSITY, priority 2018, published 2021).

Where two headings read alike, the source gives them in different places. Bounds are passed on as bounds.

The subject of assay [1] is Enterococcus faecium (ATCC 19434). In words: Bacterial proliferation assay, E. faecium. In kind it is cell-based. The method, boiled down: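 Enterococcus faecium ATCC 19434 was grown overnight at 37° C. in BHI broth supplemented with 25 mg/L Ca^2+ and 12.5 mg/L Mg^2+, subcultured 1:5, and diluted to OD600 0.017. 30 μL portions went into 384-well plates holding compounds, sealed with oxygen-permeable membranes, and incubated stagnant at 37° C. OD600 was read at 24 h to give EC50.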

The subject of assay [2] is Drug sensitive Staphylococcus aureus (ATCC 25923). In words: Bacterial proliferation assay, drug sensitive S. aureus. It counts as cell-based. The method, boiled down: (§1)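 Cultures in BHI broth with 25 mg/L Ca2+ and 12.5 mg/L Mg2+ were diluted to OD600 0.017 and exposed to compounds in 384-well plates at 37 °C without shaking. OD600 was read at 6-8 h (S. aureus, E. cloacae, P. aeruginosa) or 24 h (A. baumannii). EC50 values were averaged over quadruplicates.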

The test system of assay [3] is Methicillin resistant S. aureus (MRSA) (ATCC BAA-44). In words: Bacterial proliferation assay, MRSA. It counts as cell-based, Staphylococcus aureus. The conditions noted are these: Staphylococcus aureus. The gist of the method: as §1
For assay [4], the system named is Klebsiella Pneumonia (ATCC 13883). The assay is described as follows: Bacterial proliferation assay, K. pneumoniae. It counts as cell-based. The gist of the method: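 Klebsiella pneumoniae ATCC 13883 was cultured in Brain Heart Infusion medium supplemented with 25 mg/L Ca^2+ and 12.5 mg/L Mg^2+. Cells were diluted to OD600 0.017, and 30 μL was added to 384-well plates holding 0.5 μL compound in 20 μL media. Plates were incubated stagnantly at 37° C., and OD600 was read at 6-8 h to determine EC50.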

Assay [5] has as its system Pseudomonas aeruginosa (ATCC 10145). In words: Bacterial proliferation assay, P. aeruginosa. In kind it is cell-based. The gist of the method:
as §1

In assay [6] the test system is Enterobacter cloacae (ATCC 13047). The assay is described as follows: Bacterial proliferation assay, E. cloacae. It counts as cell-based. The method, boiled down:
as §1

[7] abbreviates: ATCC19434, OD600 at 24 h, read-out: Bacterial Proliferation EC50 E. faecium.
Setting [8] is: ATCC19434, log of EC50 (μM scale), with standard deviation, read-out: log(EC50) Bacterial Proliferation Assay C. faecium (converted).
Where [9] appears, read: ATCC25923, OD600 at 6-8 h, read-out: Bacterial Proliferation EC50 S. aureus Sensitive.
The mark [10] stands for this setting: ATCC25923, log of EC50 (μM scale), with standard deviation, read-out: log(EC50) Bacterial Proliferation Assay S. aureus Sensitive (converted).
Where [11] appears, read: MRSA, log of EC50 (μM scale), with standard deviation, read-out: log(EC50) Bacterial Proliferation Assay S. aureus Resistant (converted).
The mark [12] stands for this setting: ATCC13883, OD600 at 6-8 h, read-out: Bacterial Proliferation EC50 K. pneumoniae.
The mark [13] stands for this setting: ATCC13883, log of EC50 (μM scale), with standard deviation, read-out: log(EC50) Bacterial Proliferation Assay K. pneumoniae (converted).
[14] abbreviates: ATCC10145, OD600 at 6-8 h, read-out: Bacterial Proliferation EC50 P. aeruginosa.
Where [15] appears, read: ATCC10145, log of EC50 (μM scale), with standard deviation, read-out: log(EC50) Bacterial Proliferation Assay P. aeruginosa (converted).
The mark [16] stands for this setting: ATCC13047, OD600 at 6-8 h, read-out: Bacterial Proliferation EC50 E. cloacae.
The mark [17] stands for this setting: ATCC13047, log of EC50 (μM scale), with standard deviation, read-out: log(EC50) Bacterial Proliferation Assay E. cloacae (converted).
The mark [18] stands for this setting: ATCC19434, 24 h, read-out: Bacterial Proliferation EC50 E. faecium.
The mark [19] stands for this setting: ATCC19434, read-out: log(EC50) Bacterial Proliferation Assay C. faecium (converted).
Where [20] appears, read: ATCC25923, read-out: Bacterial Proliferation EC50 S. aureus Sensitive.
The mark [21] stands for this setting: ATCC25923, read-out: log(EC50) Bacterial Proliferation Assay S. aureus Sensitive (converted).
[22] abbreviates: read-out: Bacterial Proliferation EC50 S. aureus Resistant.
[23] abbreviates: read-out: log(EC50) Bacterial Proliferation Assay S. aureus Resistant (converted).
The mark [24] stands for this setting: ATCC13883, read-out: Bacterial Proliferation EC50 K. pneumoniae.
[25] abbreviates: ATCC13883, read-out: log(EC50) Bacterial Proliferation Assay K. pneumoniae (converted).
The mark [26] stands for this setting: ATCC10145, read-out: Bacterial Proliferation EC50 P. aeruginosa.
Setting [27] is: ATCC10145, read-out: log(EC50) Bacterial Proliferation Assay P. aeruginosa (converted).
Setting [28] is: ATCC13047, read-out: Bacterial Proliferation EC50 E. cloacae.
[29] abbreviates: ATCC13047, read-out: log(EC50) Bacterial Proliferation Assay E. cloacae (converted).
Where [30] appears, read: ATCC25923, read-out: S. aureus Proliferation & Biofilm Assay EC50 Planktonic Growth.
Where [31] appears, read: MRSA, OD600 at 6-8 h, read-out: Bacterial Proliferation EC50 S. aureus Resistant.

`COc1ccc(Br)cc1C(=O)Nc1ccc(Sc2nc3ccccc3s2)c(Cl)c1` [Compound 31, N-(4-(Benzo[d]thiazol-2-ylthio)-3-chlorophenyl)-5-bromo-2-methoxybenzamide]: the EC50 in assay [1] (setting [7]), in assay [1] (setting [8]), in assay [2] (setting [9]), in assay [2] (setting [10]), in assay [3] (setting [11]) and in assay [4] (setting [12]) was over 100 µM throughout. Moreover, the EC50 in assay [4] (setting [13]), in assay [5] (setting [14]), in assay [5] (setting [15]), in assay [6] (setting [16]) and in assay [6] (setting [17]) was over 100 µM in each case.

As for `COc1c(Br)cc(Br)cc1C(=O)Nc1ccccc1` [Compound 41, 3,5-Dibromo-2-methoxy-N-phenylbenzamide], the EC50 in assay [1] (setting [7]), in assay [1] (setting [8]), in assay [2] (setting [9]), in assay [2] (setting [10]), in assay [3] (setting [11]) and in assay [4] (setting [12]) was over 100 µM throughout. Besides, the EC50 in assay [4] (setting [13]), in assay [5] (setting [14]), in assay [5] (setting [15]), in assay [6] (setting [16]) and in assay [6] (setting [17]) was over 100 µM each time.

As for `O=C(Nc1ccc(Sc2nc3ccccc3s2)c(Cl)c1)c1cc(Br)ccc1O` [Compound 3, N-(4-(Benzo[d]thiazol-2-ylthio)-3-chlorophenyl)-5-bromo-2-hydroxybenzamide], the EC50 in assay [1] (setting [18]) was 15 µM; in assay [1] (setting [19]), 14.8 µM; in assay [2] (setting [20]), 0.12 µM; in assay [2] (setting [21]), 0.117 µM; in assay [3] (setting [22]), 0.17 µM; in assay [3] (setting [23]) it was 0.17 µM. For the same compound, the EC50 in assay [4] (setting [24]), in assay [4] (setting [25]), in assay [5] (setting [26]), in assay [5] (setting [27]), in assay [6] (setting [28]) and in assay [6] (setting [29]) was over 100 µM in each case.

On to `O=C(Nc1cccc(Cl)c1)c1cc(Br)ccc1O` [Compound 11, 5-Bromo-N-(3-chlorophenyl)-2-hydroxybenzamide], for which the EC50 in assay [1] (setting [18]) was over 100 µM; in assay [1] (setting [19]) it was over 100 µM; in assay [2] (setting [20]), 0.46 µM; in assay [2] (setting [30]), 0.46 µM; in assay [2] (setting [21]) it was 0.457 µM; in assay [3] (setting [22]) it was 0.53 µM. Moreover, the EC50 in assay [3] (setting [23]) is 0.537 µM; in assay [4] (setting [24]) it was over 100 µM; in assay [4] (setting [25]), over 100 µM; in assay [5] (setting [26]), over 100 µM; in assay [5] (setting [27]), over 100 µM; in assay [6] (setting [28]), over 100 µM. Besides, in assay [6] (setting [29]), the EC50 is over 100 µM.

Turning to `O=C(Nc1ccc(Sc2nc3ccccc3s2)c(Cl)c1)c1cccc(Br)c1O` [Compound 2, N-(4-(Benzo[d]thiazol-2-ylthio)-3-chlorophenyl)-3-bromo-2-hydroxybenzamide], the EC50 in assay [1] (setting [18]) was 24 µM; in assay [1] (setting [19]), 23.4 µM; in assay [2] (setting [20]) it was 0.45 µM; in assay [2] (setting [30]) it was 0.45 µM; in assay [2] (setting [21]), 0.457 µM; in assay [3] (setting [22]), 0.71 µM. The EC50 in assay [3] (setting [23]) was 0.708 µM; in assay [4] (setting [24]), over 100 µM; in assay [4] (setting [25]), over 100 µM; in assay [5] (setting [26]), over 100 µM; in assay [5] (setting [27]), over 100 µM; in assay [6] (setting [28]), over 100 µM. Further, in assay [6] (setting [29]), the EC50 was over 100 µM.

Turning to `COc1ccc(Br)cc1C(=O)Nc1ccc(Sc2nc3ccccc3s2)cc1` [Compound 35, N-(4-(Benzo[d]thiazol-2-ylthio)phenyl)-5-bromo-2-methoxybenzamide], the EC50 in assay [1] (setting [7]), in assay [1] (setting [8]), in assay [2] (setting [9]), in assay [2] (setting [10]), in assay [3] (setting [11]) and in assay [4] (setting [12]) was over 100 µM in each case. The EC50 in assay [4] (setting [13]), in assay [5] (setting [14]), in assay [5] (setting [15]), in assay [6] (setting [16]) and in assay [6] (setting [17]) was over 100 µM in each case.

Take `O=C(Nc1ccccc1)c1ccccc1O` [Compound 16, 2-Hydroxy-N-phenylbenzamide]: the EC50 in assay [1] (setting [18]) was over 100 µM; in assay [1] (setting [19]), over 100 µM; in assay [2] (setting [20]), 28 µM; in assay [2] (setting [21]) it was 27.5 µM; in assay [3] (setting [22]) it was 51 µM; in assay [3] (setting [23]) it was 51.3 µM. The EC50 in assay [4] (setting [24]), in assay [4] (setting [25]), in assay [5] (setting [26]), in assay [5] (setting [27]), in assay [6] (setting [28]) and in assay [6] (setting [29]) was over 100 µM each time.

In the case of `COc1ccc(Br)cc1C(=O)Nc1ccccc1` [Compound 43, 5-Bromo-2-methoxy-N-phenylbenzamide], the EC50 in assay [1] (setting [7]), in assay [1] (setting [8]), in assay [2] (setting [9]), in assay [2] (setting [10]), in assay [3] (setting [11]) and in assay [4] (setting [12]) was over 100 µM throughout. Moreover, the EC50 in assay [4] (setting [13]), in assay [5] (setting [14]), in assay [5] (setting [15]), in assay [6] (setting [16]) and in assay [6] (setting [17]) was over 100 µM throughout.

As for `O=C(Nc1ccc(Sc2nc3ccccc3s2)c(Cl)c1)c1ccccc1O` [Compound 4, N-(4-(Benzo[d]thiazol-2-ylthio)-3-chlorophenyl)-2-hydroxybenzamide], the EC50 is 64 µM in assay [1] (setting [7]); 63.1 µM in assay [1] (setting [8]); 0.31 µM in assay [2] (setting [9]); 0.309 µM in assay [2] (setting [10]); 0.45 µM in assay [3] (setting [31]); 0.447 µM in assay [3] (setting [11]). Moreover, the EC50 in assay [4] (setting [12]), in assay [4] (setting [13]), in assay [5] (setting [14]), in assay [5] (setting [15]), in assay [6] (setting [16]) and in assay [6] (setting [17]) was over 100 µM each time.

As for `O=C(Nc1ccc(Sc2nc3ccccc3s2)cc1)c1ccccc1O` [Compound 8, N-(4-(Benzo[d]thiazol-2-ylthio)phenyl)-2-hydroxybenzamide], the EC50 is 67 µM in assay [1] (setting [7]); 67.6 µM in assay [1] (setting [8]); 0.2 µM in assay [2] (setting [9]); 0.204 µM in assay [2] (setting [10]); 0.41 µM in assay [3] (setting [31]); 0.407 µM in assay [3] (setting [11]). Further, the EC50 in assay [4] (setting [12]), in assay [4] (setting [13]), in assay [5] (setting [14]), in assay [5] (setting [15]), in assay [6] (setting [16]) and in assay [6] (setting [17]) was over 100 µM throughout.

Consider `CO[C@H]1/C=C/O[C@@]2(C)Oc3c(C)c(O)c4c(O)c(c(/C=N/N5CCN(C)CC5)c(O)c4c3C2=O)NC(=O)/C(C)=C\C=C\[C@H](C)[C@H](O)[C@@H](C)[C@@H](O)[C@@H](C)[C@H](OC(C)=O)[C@@H]1C` [Rifampicin, rifampicin, reference compound], for which the EC50 is 0.13 µM in assay [1] (setting [7]); 0.126 µM in assay [1] (setting [8]); under 0.05 µM in assay [2] (setting [9]); under 0.0501 µM in assay [2] (setting [10]); 0.23 µM in assay [3] (setting [31]); 0.229 µM in assay [3] (setting [11]). The EC50 in assay [4] (setting [12]) was 11 µM; in assay [4] (setting [13]) it was 11 µM; in assay [5] (setting [14]) it was 7.8 µM; in assay [5] (setting [15]), 7.76 µM; in assay [6] (setting [16]), 8.8 µM; in assay [6] (setting [17]), 8.71 µM.
